Test results reported in US12215106B2, “Pharmaceutical compounds and therapeutic methods” (RUTGERS, THE STATE UNIVERSITY OF NEW JERSEY, priority 2018, dated 2025).
Counter-ions that a name gives are not always drawn. Like-named read-outs stand apart in the source and are kept apart here.

Assay: Plasma pharmacokinetics and brain distribution after single IV, IP and oral administration
Format: in vivo
Method: The objective of this study was to investigate the plasma pharmacokinetics and brain distribution of Compound (14 in male C57BL/6 mice following a single intravenous, intraperitoneal and oral administration. A group of sixty-three male mice were divided into three groups (Group 1: 2 mg/kg/IV; Group 2: 10 mg/kg/IP and Group 3: 10 mg/kg/PO) with each group comprising of twenty-one mice.
Animals in Group 1 were administered intravenously with Compound 15 solution formulation in 5% NMP, 5% Solutol HS-15, 30% PEG-400 and 60% Captisol (20% w/v) at 2 mg/kg dose. […] Considering mortality intravenous dose was reduced to 2 mg/kg.
Animals in Group 2 and 3 were administered with Compound 15 solution formulation in 5% NMP, 5% Solutol HS-15, 30% PEG-400 and 60% Captisol (20% w/v) at a dose of 10 mg/kg by intraperitoneal and oral route respectively.
(§1) Blood samples (approximately 60 μL) were collected under light isoflurane anesthesia from retro orbital plexus from a set of three mice at 0.08, 0.35, 1, 3, 6, 12 and 24 hr. Plasma samples were separated by centrifugation of whole blood and stored below −70±10° C. until bioanalysis. Immediately after collection of blood, brain samples were collected from set of three mice at each time point. Brain samples were homogenized using ice-cold phosphate buffer saline (pH-7.4) in a ratio of 2 (buffer):1(brain); and homogenates were stored below −70±10° C. until analysis. Total homogenate volume was three times the brain weight. All samples were processed for analysis by protein precipitation using acetonitrile and analyzed with fit-for-purpose LC/MS/MS method (LLOQ2.00 ng/mL for plasma and 3.00 ng/g for brain). Pharmacokinetic parameters were calculated using the non-compartmental analysis tool of Phoenix WinNonlin® (Version 7.0). Pharmacokinetic parameters of Compound 15 are summarized below.
The objective of this study was to investigate the plasma pharmacokinetics and brain distribution of Compound 16 in male C57BL/6 mice following a single intravenous, intraperitoneal and oral administration. A group of sixty-three male mice were divided into three groups (Group 1: 10 mg/kg/IV; Group 2: 10 mg/kg/IP and Group 3: 10 mg/kg/PO) with each group comprising of twenty-one mice.
Animals in Group 1 were administered intravenously with Compound 16 solution formulation in 5% NMP, 5% Solutol HS-15 and 90% normal saline at 10 mg/kg dose.
Animals in Group 2 and 3 were administered with Compound 16 solution formulation in 5% NMP, 5% Solutol HS-15 and 90% normal saline at a dose of 10 mg/kg by intraperitoneal and oral route respectively.
as §1, with “(LLOQ—1.00” for “(LLOQ2.00”, “16” for “15”
The objective of this study was to investigate the plasma pharmacokinetics and brain distribution of Compound 17 in male C57BL/6 mice following a single intravenous, intraperitoneal and oral administration. A group of sixty-three male mice were divided into three groups (Group 1: 2 mg/kg/IV; Group 2: 10 mg/kg/IP and Group 3: 10 mg/kg/PO) with each group comprising of twenty-one mice. […]

[1] = male, C57BL/6, mouse, in vivo, iv, 2 mg/kg, Brain concentration, individual animal
[2] = male, C57BL/6, mouse, in vivo, iv, 2 mg/kg, Mean brain conc.
[3] = male, C57BL/6, mouse, in vivo, iv, 2 mg/kg, Mean plasma conc.
[4] = male, C57BL/6, mouse, in vivo, iv, 2 mg/kg, Plasma concentration, individual animal
[5] = male, C57BL/6, mouse, in vivo, po, 10 mg/kg
[6] = male, C57BL/6, mouse, in vivo, po, 10 mg/kg, 24 h
[7] = male, C57BL/6, mouse, in vivo, po, 10 mg/kg, Brain concentration, individual animal
[8] = male, C57BL/6, mouse, in vivo, po, 10 mg/kg, Mean brain conc.
[9] = male, C57BL/6, mouse, in vivo, po, 10 mg/kg, Mean plasma conc.
[10] = male, C57BL/6, mouse, in vivo, po, 10 mg/kg, Plasma concentration, individual animal

For `[2H]C([2H])([2H])Oc1ccc(Nc2nc(-c3c(C)nc4ccccn34)cs2)cc1` [Compound 15, N-(4-(methoxy-d3)phenyl)-4-(2-methylimidazo[1,2-c]pyridin-3-yl)thiazol-2-amine hydrochloride], the concentration at 1 h [1] was 67.2 ng/g, the concentration at 6 h [1] was 0 ng/g and the concentration at 12 h [1] was 0 ng/g. The concentration at 24 h [1] was 0 ng/g, the concentration at 0.08 h [2] was 366 ng/g and the concentration at 0.35 h [2] was 231 ng/g. It also gave a concentration at 1 h [2] of 80 ng/g, a concentration at 3 h [2] of 27.2 ng/g and a concentration at 6 h [2] of 0 ng/g. The concentration at 12 h [2] was 0 ng/g, the concentration at 24 h [2] was 0 ng/g and the concentration at 0.08 h [3] was 313 ng/mL. It also gave a concentration at 0.35 h [3] of 149 ng/mL, a concentration at 1 h [3] of 61.9 ng/mL and a concentration at 3 h [3] of 16.6 ng/mL. For the same compound, the concentration at 6 h [3] was 0 ng/mL, the concentration at 12 h [3] was 0 ng/mL and the concentration at 24 h [3] was 0 ng/mL. It also gave a concentration at 0.08 h [4] of 298 ng/mL, a concentration at 0.35 h [4] of 139 ng/mL and a concentration at 6 h [4] of 0 ng/mL. The concentration at 12 h [4] was 0 ng/mL, the concentration at 24 h [4] was 0 ng/mL and the “Brain concentrations quantifiable up to” value [5] was “up to 12 hr”. The “Plasma concentrations quantifiable up to” value [5] was “up to 12 hr”, the “Brain concentration, individual animal” value [6] was 0.00 ng/g and the “Plasma concentration, individual animal” value [6] was 0.00 ng/mL. For the same compound, the concentration at 0.08 h [7] was 8.31 ng/g, the concentration at 1 h [7] was 190 ng/g and the concentration at 24 h [7] was 0 ng/g. The concentration at 0.08 h [8] was 7.99 ng/g, the concentration at 0.35 h [8] was 108 ng/g and the concentration at 1 h [8] was 253 ng/g. For the same compound, the concentration at 3 h [8] was 66 ng/g, the concentration at 6 h [8] was 6.63 ng/g and the concentration at 12 h [8] was 3.63 ng/g. For the same compound, the concentration at 24 h [8] was 0 ng/g, the concentration at 0.08 h [9] was 78.2 ng/mL and the concentration at 0.35 h [9] was 261 ng/mL. For the same compound, the concentration at 1 h [9] was 245 ng/mL, the concentration at 3 h [9] was 93.7 ng/mL and the concentration at 6 h [9] was 11.1 ng/mL. It also gave a concentration at 12 h [9] of 5.82 ng/mL, a concentration at 24 h [9] of 0 ng/mL and a concentration at 0.35 h [10] of 251 ng/mL. It also gave a concentration at 12 h [10] of 8.42 ng/mL, a concentration at 24 h [10] of 0 ng/mL and a Kp at 0.08 h (male, C57BL/6, mouse, in vivo, IV 2 mg/kg, 0.08 hr, read-out: Brain-to-plasma ratio) of 1.17. For the same compound, the Kp at 0.35 h (male, C57BL/6, mouse, in vivo, IV 2 mg/kg, 0.35 hr, read-out: Brain-to-plasma ratio) was 1.55, the Kp at 1 h (male, C57BL/6, mouse, in vivo, IV 2 mg/kg, 1 hr, read-out: Brain-to-plasma ratio) was 1.29 and the Kp at 3 h (male, C57BL/6, mouse, in vivo, IV 2 mg/kg, 3 hr, read-out: Brain-to-plasma ratio) was 1.64. The bioavailability (male, C57BL/6, mouse, plasma, po, 10 mg/kg, PO 10 mg/kg, AUClast considered, read-out: Oral bioavailability, % F) was 64%, the bioavailability (male, C57BL/6, mouse, plasma, po, 10 mg/kg, summary data, read-out: Oral bioavailability) was 64% and the Tmax (male, C57BL/6, mouse, plasma, IP 10 mg/kg) was 21 min. For the same compound, the clearance (male, C57BL/6, mouse, plasma, IV 2 mg/kg, read-out: CL, plasma clearance) was 130 mL/min/kg, the half-life (male, C57BL/6, mouse, plasma, IV 2 mg/kg, read-out: T1/2, terminal elimination half-life (converted)) was 52.8 min and the Tmax (male, C57BL/6, mouse, plasma, PO 10 mg/kg) was 21 min. The “mortality immediately after dose administration” value (mouse, in vivo, iv, 10 mg/kg) was “mortality was observed in four animals”.
